Data as given in patent US10670605B2, “Cysteine reactive probes and uses thereof” (The Scripps Research Institute, priority 2015, dated 2020).
“And” between values parts separate entries of the source, which are not always exact repeats. Equal entries are not always repeated. Values belong to the compound of their own block, whether it stands above or below them.

Assays:
Assay in all cases: Competitive isoTOP-ABPP, cell lysates
Type in all cases: binding
[1] = molecular target: T1, PDE12 C108 (Q6L8Q7) (Homo sapiens, UniProt Q6L8Q7); conditions: for R value (DMSO/fragment) / isoTOP-ABPP ratio, Q6L8Q7_C108: 500 μM; for isoTOP-ABPP reactivity ratio, Q6L8Q7_C108 / isoTOP-ABPP reactivity profile ratio, Q6L8Q7_C108: 500 μm
T1 sequence (Q6L8Q7 43-609): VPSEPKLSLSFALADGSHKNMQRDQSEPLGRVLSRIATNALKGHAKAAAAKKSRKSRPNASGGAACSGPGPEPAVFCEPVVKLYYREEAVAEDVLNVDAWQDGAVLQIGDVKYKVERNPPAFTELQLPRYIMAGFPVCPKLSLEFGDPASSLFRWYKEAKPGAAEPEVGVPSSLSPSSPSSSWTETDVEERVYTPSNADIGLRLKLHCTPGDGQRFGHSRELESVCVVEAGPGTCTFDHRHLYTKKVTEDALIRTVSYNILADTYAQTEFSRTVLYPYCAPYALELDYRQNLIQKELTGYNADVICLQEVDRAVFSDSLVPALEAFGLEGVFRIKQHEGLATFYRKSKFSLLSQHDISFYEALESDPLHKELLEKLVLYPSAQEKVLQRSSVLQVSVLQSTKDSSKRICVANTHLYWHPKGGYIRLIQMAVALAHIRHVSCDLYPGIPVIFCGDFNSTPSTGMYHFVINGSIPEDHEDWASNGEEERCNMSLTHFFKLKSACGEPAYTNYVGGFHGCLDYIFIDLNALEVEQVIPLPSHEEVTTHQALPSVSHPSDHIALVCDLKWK

[2] = molecular target: T2, IDH2 C308 (P48735) (Homo sapiens, UniProt P48735); conditions: for R value (DMSO/fragment) / isoTOP-ABPP ratio, P48735_C308: 500 μM; for R value (DMSO/fragment): in vitro, MDA-MB-231; for isoTOP-ABPP ratio, P48735_C308: invitro, 231; for isoTOP-ABPP ratio (reactivity profile), P48735_C308: 500 μm in-vitro ramos_231; for isoTOP-ABPP reactivity profile ratio, P48735_C308: 500 μm, in-vitro_ramos_231
T2 sequence (P48735 40-452): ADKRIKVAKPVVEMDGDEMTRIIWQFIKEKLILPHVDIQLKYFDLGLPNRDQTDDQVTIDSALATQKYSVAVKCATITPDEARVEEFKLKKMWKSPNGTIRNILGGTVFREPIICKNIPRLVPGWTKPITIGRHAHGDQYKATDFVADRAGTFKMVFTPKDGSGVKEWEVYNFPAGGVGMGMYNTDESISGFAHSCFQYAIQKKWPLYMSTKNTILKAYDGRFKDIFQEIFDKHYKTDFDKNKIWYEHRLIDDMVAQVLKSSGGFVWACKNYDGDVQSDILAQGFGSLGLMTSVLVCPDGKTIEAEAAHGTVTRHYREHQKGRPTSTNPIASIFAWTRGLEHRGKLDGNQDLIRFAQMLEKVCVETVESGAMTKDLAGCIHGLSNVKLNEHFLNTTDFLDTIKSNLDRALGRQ

[3] = molecular target: T3, IRF4 C194 (Q15306) (Homo sapiens, UniProt Q15306); conditions: for isoTOP-ABPP ratio (reactivity profile), Q15306_C194: 500 μm in-vitro ramos; for isoTOP-ABPP reactivity ratio, Q15306_C194 / isoTOP-ABPP reactivity profile ratio, Q15306_C194: 500 μm, in-vitro_ramos
T3 sequence (Q15306 1-451): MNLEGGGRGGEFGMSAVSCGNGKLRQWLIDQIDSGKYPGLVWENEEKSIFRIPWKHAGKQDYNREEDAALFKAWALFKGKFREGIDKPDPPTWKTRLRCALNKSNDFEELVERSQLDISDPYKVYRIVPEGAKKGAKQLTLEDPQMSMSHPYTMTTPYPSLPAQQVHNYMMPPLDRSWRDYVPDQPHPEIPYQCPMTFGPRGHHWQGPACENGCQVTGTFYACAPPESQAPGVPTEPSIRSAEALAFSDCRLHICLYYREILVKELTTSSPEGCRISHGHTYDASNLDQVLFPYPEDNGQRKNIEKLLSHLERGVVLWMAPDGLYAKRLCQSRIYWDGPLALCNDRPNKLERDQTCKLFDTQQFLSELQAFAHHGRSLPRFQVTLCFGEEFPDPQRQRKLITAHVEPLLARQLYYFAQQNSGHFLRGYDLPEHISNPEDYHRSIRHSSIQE

SMILES: COc1ccc2c(c1)CCCN2C(=O)CCl [compound 2]
R value (DMSO/fragment) ([1]; invitro, ramos): 5.1
R value (DMSO/fragment) [2]: 1.4

SMILES: C=CC(=O)N(c1ccccc1)c1ccc(Br)cc1 [compound 5]
isoTOP-ABPP ratio, Q15306_C194 ([3]; 500 μM, invitro, ramos): 2.2
isoTOP-ABPP ratio, P48735_C308 [2]: 0.8

SMILES: O=C(CCl)N1CCOCC1 [compound 22]
isoTOP-ABPP ratio (reactivity profile), Q15306_C194 [3]: 1.1

SMILES: O=C(CCl)Nc1cc(C(F)(F)F)cc(C(F)(F)F)c1 [compound 3]
R value (DMSO/fragment) ([3]; 500 μM, invitro, ramos): 20.0
R value (DMSO/fragment) ([1]; in vitro, MDA-MB-231): 3.6
R value (DMSO/fragment) ([1]; invitro, ramos): 1.8
R value (DMSO/fragment) [2]: 2.2

SMILES: O=C(CCl)NC(=O)NC12CC3CC(CC(C3)C1)C2 [compound 12]
isoTOP-ABPP ratio, Q15306_C194 ([3]; 500 μM, invitro, ramos): 3.7
isoTOP-ABPP ratio, Q6L8Q7_C108 ([1]; invitro, ramos): 1.5
isoTOP-ABPP ratio, P48735_C308 [2]: 1.7

SMILES: O=C(CCl)N1CCN(S(=O)(=O)c2ccccc2F)CC1 [compound 10]
isoTOP-ABPP ratio, Q15306_C194 ([3]; 500 μM, invitro, ramos): 2.5
isoTOP-ABPP ratio, P48735_C308 [2]: 1.1

SMILES: Cn1cc(S(=O)(=O)N2CCOCC2)cc1C(=O)NC(=O)CCl [compound 11]
isoTOP-ABPP ratio, Q15306_C194 ([3]; 500 μM, invitro, ramos): 4.3
isoTOP-ABPP ratio, Q6L8Q7_C108 ([1]; invitro, 231): 4.2
isoTOP-ABPP ratio, P48735_C308 [2]: 1.1

SMILES: O=C(CCl)N1CCC(C(O)(c2ccccc2)c2ccccc2)CC1 [compound 20]
isoTOP-ABPP ratio (reactivity profile), Q15306_C194 [3]: 3.0
isoTOP-ABPP ratio (reactivity profile), Q6L8Q7_C108 ([1]; 500 μm in-vitro ramos_231): 1.6
isoTOP-ABPP ratio (reactivity profile), P48735_C308 [2]: 0.5

Other lines, results leading:

isoTOP-ABPP ratio (reactivity profile), Q15306_C194 [3]: 1.0
isoTOP-ABPP ratio (reactivity profile), Q6L8Q7_C108 ([1]; 500 μm in-vitro ramos): 1.3
isoTOP-ABPP ratio (reactivity profile), Q6L8Q7_C108 ([1]; 500 μm in-vitro ramos_231): 0.5
isoTOP-ABPP ratio (reactivity profile), P48735_C308 [2]: 1.9 and 1.0
SMILES: CC(C)CCOCCNC(=O)CCl [compound 27]

isoTOP-ABPP ratio (reactivity profile), Q15306_C194 [3]: 1.7
isoTOP-ABPP ratio (reactivity profile), P48735_C308 [2]: 0.6
SMILES: O=C(CCl)NC12CC3CC(CC(C3)C1)C2 [compound 21]

isoTOP-ABPP reactivity ratio, Q15306_C194 [3]: 1.2
isoTOP-ABPP reactivity ratio, Q6L8Q7_C108 ([1]; in-vitro_ramos_231): 1.3
SMILES: Cc1ccc(C=C(C#N)C(=O)NCCN2CCOCC2)cc1 [compound 41]

isoTOP-ABPP reactivity ratio, Q15306_C194 [3]: 3.7
isoTOP-ABPP reactivity ratio, Q6L8Q7_C108 ([1]; in-vitro_ramos): 1.9
isoTOP-ABPP reactivity ratio, Q6L8Q7_C108 ([1]; in-vitro_ramos_231): 2.5
SMILES: CC(C)(C)c1cc(NC(=O)CCl)on1 [compound 32]

isoTOP-ABPP reactivity profile ratio, P48735_C308 [2]: 0.2
SMILES: C=CC(=O)N(c1ccccc1)C1CCCCC1 [compound 46]

isoTOP-ABPP reactivity ratio, Q15306_C194 [3]: 1.0
isoTOP-ABPP reactivity ratio, Q6L8Q7_C108 ([1]; in-vitro_ramos_231): 0.8
SMILES: O=C(CCl)Nc1ccccc1C1CCCCCC1 [compound 35]

isoTOP-ABPP reactivity profile ratio, Q15306_C194 [3]: 1.2
SMILES: N#CC(=Cc1ccc(-c2ccccc2Cl)o1)C(N)=O [compound 42]

isoTOP-ABPP reactivity profile ratio, Q15306_C194 [3]: 1.4
isoTOP-ABPP reactivity profile ratio, Q6L8Q7_C108 ([1]; in-vitro_ramos): 6.8
isoTOP-ABPP reactivity profile ratio, Q6L8Q7_C108 ([1]; in-vitro_ramos_231): 1.4
isoTOP-ABPP reactivity profile ratio, P48735_C308 [2]: 1.1
SMILES: O=C(CCl)Nc1ccc(-c2ccccc2)cc1 [compound 52]

isoTOP-ABPP ratio (reactivity profile), Q15306_C194 [3]: 1.1
isoTOP-ABPP ratio (reactivity profile), Q6L8Q7_C108 ([1]; 500 μm in-vitro ramos): 1.2
isoTOP-ABPP ratio (reactivity profile), Q6L8Q7_C108 ([1]; 500 μm in-vitro ramos_231): 1.0
isoTOP-ABPP ratio (reactivity profile), P48735_C308 [2]: 0.9
SMILES: COc1ccccc1OCCNC(=O)CCl [compound 28]

isoTOP-ABPP reactivity profile ratio, Q15306_C194 [3]: 1.0
isoTOP-ABPP reactivity profile ratio, Q6L8Q7_C108 ([1]; in-vitro_ramos): 1.1
isoTOP-ABPP reactivity profile ratio, P48735_C308 [2]: 0.5
SMILES: C=CC(=O)N1CCC(Cc2ccccc2)CC1 [compound 53]
